Several values for one entry are separate records, joined by “and”; a condition that tells them apart may be missing. Equal values may be shown once. Inconclusive results and toxic doses are left out.
Test system: P388 leukemia ip, CD2F1 mice, survival T/C
Assay: NCI In Vivo Anticancer Drug Screen. Data for tumor model P388 Leukemia (intraperitoneal) in CD2F1 (CDF1) mice
Conditions: endpoint: median survival time, higher = longer survival
Procedure, shortened: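 Mice carrying the transplanted tumor received test compound or vehicle. Survival was recorded in each group, and the value is the treated-group measurement divided by that of the vehicle-treated control group.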

[1] = dose: 100.0 mg/kg/injection, schedule: Q04DX002 (ip), vehicle: Klucel (hydroxypropylcellulose) (HPC)
[2] = dose: 200.0 mg/kg/injection, schedule: Q04DX002 (ip), vehicle: Klucel (hydroxypropylcellulose) (HPC)
[3] = dose: 400.0 mg/kg/injection, schedule: Q04DX002 (ip), vehicle: Klucel (hydroxypropylcellulose) (HPC)
[4] = dose: 50.0 mg/kg/injection, schedule: Q01DX009 (ip), vehicle: saline
[5] = dose: 100.0 mg/kg/injection, schedule: Q01DX009 (ip), vehicle: saline
[6] = dose: 200.0 mg/kg/injection, schedule: Q01DX009 (ip), vehicle: saline
[7] = dose: 50.0 mg/kg/injection, schedule: Q01DX009 (ip), vehicle: Klucel (hydroxypropylcellulose) (HPC)
[8] = dose: 100.0 mg/kg/injection, schedule: Q01DX009 (ip), vehicle: Klucel (hydroxypropylcellulose) (HPC)
[9] = dose: 50.0 mg/kg/injection, schedule: Q01DX009 (ip), vehicle: saline with Tween-80
[10] = dose: 100.0 mg/kg/injection, schedule: Q01DX009 (ip), vehicle: saline with Tween-80
[11] = dose: 200.0 mg/kg/injection, schedule: Q01DX009 (ip), vehicle: saline with Tween-80

Which results are given for `O=C(C1CO1)C(Cl)(Cl)Cl` (stereo unspecified)?
T/C (dose: 3.12 mg/kg/injection, schedule: Q01DX001 (ip), vehicle: saline): 107 % of control; T/C (dose: 6.25 mg/kg/injection, schedule: Q01DX001 (ip), vehicle: saline): 107 % of control; T/C (dose: 12.5 mg/kg/injection, schedule: Q01DX001 (ip), vehicle: saline): 116 % of control; T/C (dose: 25.0 mg/kg/injection, schedule: Q01DX001 (ip), vehicle: saline): 120 % of control and 122 % of control; T/C (dose: 50.0 mg/kg/injection, schedule: Q01DX001 (ip), vehicle: saline): 113 % of control; T/C (dose: 100.0 mg/kg/injection, schedule: Q01DX001 (ip), vehicle: saline): 111 % of control

`CCCCC1(CC)COC(C)(c2ccccc2)OC1` (stereo unspecified) was tested. Which T/C (dose: 75.0 mg/kg/injection, schedule: Q01DX009 (ip), vehicle: saline) did it give?
Its T/C is 112 % of control.

What about the T/C (dose: 150.0 mg/kg/injection, schedule: Q01DX009 (ip), vehicle: saline) of the same compound?
Its T/C is 110 % of control.

What about the T/C (dose: 300.0 mg/kg/injection, schedule: Q01DX009 (ip), vehicle: saline) of the same compound?
The T/C was 108 % of control.

With `Nc1ncnc2ncn(CC(O)CN(CCO)CCO)c12` (stereo unspecified) as the compound, how does the T/C (dose: 60.0 mg/kg/injection, schedule: Q01DX005 (ip), vehicle: Klucel (hydroxypropylcellulose) (HPC)) read?
The T/C was 100 % of control.

What about the T/C (dose: 120.0 mg/kg/injection, schedule: Q01DX005 (ip), vehicle: Klucel (hydroxypropylcellulose) (HPC)) of the same compound?
The T/C was 97 % of control.

And the T/C (dose: 240.0 mg/kg/injection, schedule: Q01DX005 (ip), vehicle: Klucel (hydroxypropylcellulose) (HPC))?
The T/C was 95 % of control.

Which results are given for `COC(=O)c1cccc2c1Oc1c(cccc1C(=O)OC)S2`?
T/C [1]: 109 % of control; T/C [2]: 115 % of control; T/C [3]: 117 % of control

Which T/C [4] does the source give for `NCCCCCCN1CCN(c2cccc(Cl)c2)CC1` here?
The T/C was 103 % of control and 97 % of control.

And the T/C [5]?
Its T/C is 114 % of control and 98 % of control.

What about the T/C [6] of the same compound?
Its T/C is 123 % of control.

Which results are given for `[Cl][Pt+2][Cl].[NH-]CC(=O)O.[NH-]CC(=O)O`?
T/C (dose: 3.13 mg/kg/injection, schedule: Q01DX009 (ip), vehicle: water): 100 % of control and 121 % of control; T/C (dose: 6.25 mg/kg/injection, schedule: Q01DX009 (ip), vehicle: water): 113 % of control; T/C (dose: 12.5 mg/kg/injection, schedule: Q01DX009 (ip), vehicle: water): 123 % of control and 124 % of control; T/C (dose: 25.0 mg/kg/injection, schedule: Q01DX009 (ip), vehicle: water): 117 % of control; T/C (dose: 50.0 mg/kg/injection, schedule: Q01DX009 (ip), vehicle: water): 118 % of control and 121 % of control

What does the source list for `C=CCSc1ccc(Cl)cc1[N+](=O)[O-]`?
T/C [7]: 101 % of control; T/C [8]: 100 % of control; T/C (dose: 200.0 mg/kg/injection, schedule: Q01DX009 (ip), vehicle: Klucel (hydroxypropylcellulose) (HPC)): 100 % of control

What does the source list for `C=C1COC(O)(C(OC)C(O)CC2CC(=O)NC(=O)C2)C1C` (stereo unspecified)?
T/C (dose: 0.01 mg/kg/injection, schedule: Q01DX009 (ip), vehicle: water): 105 % of control; T/C (dose: 0.03 mg/kg/injection, schedule: Q01DX009 (ip), vehicle: water): 104 % of control; T/C (dose: 0.06 mg/kg/injection, schedule: Q01DX009 (ip), vehicle: water): 111 % of control; T/C (dose: 0.12 mg/kg/injection, schedule: Q01DX009 (ip), vehicle: water): 117 % of control

How did the T/C (dose: 60.0 mg/kg/injection, schedule: Q01DX005 (ip), vehicle: saline with Tween-80) turn out when `Cc1ccc(C(=O)CC2(O)C(=O)Nc3c(Cl)cc(Cl)cc32)cc1` (stereo unspecified) was run?
Its T/C is 103 % of control.

What about the T/C (dose: 120.0 mg/kg/injection, schedule: Q01DX005 (ip), vehicle: saline with Tween-80) of the same compound?
The T/C was 108 % of control.

And the T/C (dose: 240.0 mg/kg/injection, schedule: Q01DX005 (ip), vehicle: saline with Tween-80)?
The T/C was 100 % of control.

What does the source list for `COC(=O)C1=CN(C)C(c2ccccc2)C=C1` (stereo unspecified)?
T/C (dose: 50.0 mg/kg/injection, schedule: Q01DX005 (ip), vehicle: saline with Tween-80): 103 % of control; T/C (dose: 100.0 mg/kg/injection, schedule: Q01DX005 (ip), vehicle: saline with Tween-80): 107 % of control; T/C (dose: 200.0 mg/kg/injection, schedule: Q01DX005 (ip), vehicle: saline with Tween-80): 112 % of control

Which results are given for `O=C(O)c1ccc(=O)oc1`?
T/C (dose: 12.5 mg/kg/injection, schedule: Q01DX009 (ip), vehicle: saline with Tween-80): 98 % of control; T/C (dose: 25.0 mg/kg/injection, schedule: Q01DX009 (ip), vehicle: saline with Tween-80): 94 % of control; T/C [9]: 116 % of control; T/C [10]: 116 % of control

Which T/C (dose: 100.0 mg/kg/injection, schedule: Q01DX009 (ip), vehicle: suspension in saline) does the source give for `CC(SC(C)C(=O)N/N=C/c1ccc(C#N)cc1)C(=O)N/N=C\c1ccc(C#N)cc1` (stereo unspecified) here?
Its T/C is 97 % of control.

What about the T/C (dose: 200.0 mg/kg/injection, schedule: Q01DX009 (ip), vehicle: suspension in saline) of the same compound?
The T/C was 101 % of control.

And the T/C (dose: 400.0 mg/kg/injection, schedule: Q01DX009 (ip), vehicle: suspension in saline)?
Its T/C is 90 % of control.

Which T/C (dose: 60.0 mg/kg/injection, schedule: Q01DX005 (ip), vehicle: saline) does the source give for `CN(C)CC(CN(C)C)C(O)c1ccccc1` (stereo unspecified) here?
The T/C was 109 % of control.

What about the T/C (dose: 120.0 mg/kg/injection, schedule: Q01DX005 (ip), vehicle: saline) of the same compound?
The T/C was 100 % of control.

What about the T/C (dose: 240.0 mg/kg/injection, schedule: Q01DX005 (ip), vehicle: saline) of the same compound?
The T/C was 109 % of control.

What does the source list for `CCOP(=O)(OCC)C1OCC(O)C(C2OC(P(=O)(OCC)OCC)OCC2O)O1` (stereo unspecified)?
T/C [4]: 109 % of control; T/C [5]: 112 % of control; T/C [6]: 112 % of control

Which results are given for `O=NN(CCCl)C(=O)N(CCCl)C(=O)Oc1c(Cl)cc(Cl)cc1Cl`?
T/C (dose: 25.0 mg/kg/injection, schedule: Q01DX001 (ip), vehicle: saline with Tween-80): 122 % of control; T/C (dose: 100.0 mg/kg/injection, schedule: Q01DX001 (ip), vehicle: saline with Tween-80): 150 % of control; T/C (dose: 200.0 mg/kg/injection, schedule: Q01DX001 (ip), vehicle: saline with Tween-80): 179 % of control and 193 % of control; T/C (dose: 400.0 mg/kg/injection, schedule: Q01DX001 (ip), vehicle: saline with Tween-80): 199 % of control

What does the source list for `CC(C)[CH2][Sn](=[O])[c]1ccccc1`?
T/C (dose: 0.39 mg/kg/injection, schedule: Q01DX009 (ip), vehicle: saline): 88 % of control; T/C (dose: 0.79 mg/kg/injection, schedule: Q01DX009 (ip), vehicle: saline): 87 % of control; T/C (dose: 1.56 mg/kg/injection, schedule: Q01DX009 (ip), vehicle: saline): 95 % of control

How did the T/C [9] turn out when `CNC(=O)NC1NC(=O)N(C)C1=O` (stereo unspecified) was run?
The T/C was 100 % of control.

And the T/C [10]?
The T/C was 99 % of control.

And the T/C [11]?
Its T/C is 100 % of control.

How did the T/C [1] turn out when `COc1ccc(C2=C(Cl)C(=O)N(c3ccccc3)C(=O)C2(Cl)Cl)cc1` was run?
The T/C was 103 % of control.

And the T/C [2]?
Its T/C is 107 % of control.

And the T/C [3]?
The T/C was 107 % of control.

For `Cc1ccc(S(=O)(=O)Nc2ccc(-c3cc4cc(Cl)ccc4o3)cc2)cc1`, which T/C (dose: 6.25 mg/kg/injection, schedule: Q01DX005 (ip), vehicle: saline with Tween-80) is on record?
The T/C was 92 % of control.

What about the T/C (dose: 12.5 mg/kg/injection, schedule: Q01DX005 (ip), vehicle: saline with Tween-80) of the same compound?
Its T/C is 91 % of control.

And the T/C (dose: 25.0 mg/kg/injection, schedule: Q01DX005 (ip), vehicle: saline with Tween-80)?
Its T/C is 87 % of control.

For `COc1ccc(C(=O)O)c(N)c1`, which T/C [10] is on record?
Its T/C is 90 % of control.

And the T/C [11]?
Its T/C is 95 % of control.

And the T/C (dose: 400.0 mg/kg/injection, schedule: Q01DX009 (ip), vehicle: saline with Tween-80)?
Its T/C is 109 % of control.

For `Cc1ccc2nc3ccccc3cc2c1`, which T/C (dose: 25.0 mg/kg/injection, schedule: Q04DX003 (ip), vehicle: saline with Tween-80) is on record?
The T/C was 104 % of control.

What about the T/C (dose: 50.0 mg/kg/injection, schedule: Q04DX003 (ip), vehicle: saline with Tween-80) of the same compound?
The T/C was 100 % of control.

And the T/C (dose: 100.0 mg/kg/injection, schedule: Q04DX003 (ip), vehicle: saline with Tween-80)?
The T/C was 95 % of control.

And the T/C (dose: 200.0 mg/kg/injection, schedule: Q04DX003 (ip), vehicle: saline with Tween-80)?
Its T/C is 99 % of control.

For `Cc1ccc(C2(COC(=O)c3ccccc3)CO2)c(OC(=O)C(C)C)c1` (stereo unspecified), which T/C (dose: 12.5 mg/kg/injection, schedule: Q01DX009 (ip), vehicle: Klucel (hydroxypropylcellulose) (HPC)) is on record?
The T/C was 99 % of control.

What about the T/C (dose: 25.0 mg/kg/injection, schedule: Q01DX009 (ip), vehicle: Klucel (hydroxypropylcellulose) (HPC)) of the same compound?
Its T/C is 95 % of control.

What about the T/C [7] of the same compound?
Its T/C is 107 % of control.

And the T/C [8]?
The T/C was 105 % of control.

Which T/C [4] does the source give for `NCCc1cc(O)c(O)c(O)c1` here?
Its T/C is 108 % of control and 109 % of control.

What about the T/C [5] of the same compound?
The T/C was 117 % of control.

And the T/C (dose: 400.0 mg/kg/injection, schedule: Q01DX009 (ip), vehicle: saline)?
The T/C was 153 % of control and 168 % of control.

How did the T/C (dose: 100.0 mg/kg/injection, schedule: Q04DX003 (ip), vehicle: saline) turn out when `CC(C)C(O)C1CCOS1(=O)=O` (stereo unspecified) was run?
Its T/C is 95 % of control.

What about the T/C (dose: 200.0 mg/kg/injection, schedule: Q04DX003 (ip), vehicle: saline) of the same compound?
Its T/C is 101 % of control.

Reference: PubChem BioAssay AID330 (DTP/NCI, 2004)
